Measured values taken from patent EP4692091A1, “CA[…], AND PHARMACEUTICAL COMPOSITION, PREPARATION METHOD THEREFOR AND USE THEREOF” (Changchun Genescience Pharmaceutical Co., Ltd., priority 2023, dated 2024).

Key:
SK-BR-3 = test: Inhibition of proliferation of SK-BR-3 cells by compounds (CellTiter-Glo, 72 h); format: cell-based; conditions: SK-BR-3, 72 h incubation
Description: 3: Test method (1) Cell plating: first, tumor cells SK-BR-3 were cultured using a corresponding culture medium, trypsinized, centrifuged, resuspended for counting, adjusted to an appropriate concentration, and then plated on a 384-well plate. (2) Co-incubation of the compounds and tumor cells: after the cells adhered to the wall, 100 nL of a diluted bioactive substance (test compound) was added to the cell culture plate using ECHO, the final concentration of DMSO in wells of the cell plate was 0.33%, and the incubation was performed in an incubator at 37°C with 5% CO2 for 72 h. (3) After the incubation was complete, 30 µL of a CTG reagent (CelltiterGlo kit) was added to each well. The culture was oscillated on a fast oscillator for 2 min, centrifuged at 1,000 rpm for 1 min, and kept away from light at room temperature for 30 min. The chemiluminescence signal value was read using an Envision instrument. (4) Cell viability detection: IC50 was calculated using GraphPad Prism 8 software, and the IC50 of the compounds was obtained using the following nonlinear fitting formula (see Table 1) : 1. Y=Bottom+(Top-Bottom)/(1+10^((LogIC50-X)*HillSlope)) 2. […] Table 1 Antiproliferative activity of test compounds on SK-BR-3

MDA-MB-468 = test: Inhibition of proliferation of MDA-MB-468 cells by test compounds (CellTiter-Glo, 72 h); format: cell-based; conditions: MDA-MB-468, 72 h incubation
Description: 3: Test method • (1) Cell plating: first, tumor cells MDA-MB-468 were cultured using a corresponding culture medium, trypsinized, centrifuged, resuspended for counting, adjusted to an appropriate concentration, and then plated on a 384-well plate. • (2) Co-incubation of the compounds and tumor cells: after the cells adhered to the wall, 100 nL of a diluted bioactive substance (test compound) was added to the cell culture plate using ECHO, the final concentration of DMSO in wells of the cell plate was 0.33%, and the incubation was performed in an incubator at 37°C with […] for 72 h. • (3) After the incubation was complete, 30 µL of a CTG reagent (CelltiterGlo kit) was added to each well. The culture was oscillated on a fast oscillator for 2 min, centrifuged at 1,000 rpm for 1 min, and kept away from light at room temperature for 30 min. The chemiluminescence signal value was read using an Envision instrument. • (4) Cell viability detection: IC50 was calculated using GraphPad Prism 8 software, and the IC50 of the compounds was obtained using the following nonlinear fitting formula (see Table 2): • 6. Y=Bottom+(Top-Bottom)/(1+10^((LogIC50-X)*HillSlope)) • 7. […] Table 2 Antiproliferative activity of test compounds on MDA-MB-468

NCI-N87 = test: Inhibition of proliferation of NCI-N87 cells by test compounds (CellTiter-Glo, 72 h); format: cell-based; conditions: NCI-N87, 72 h incubation
Description: 3: Test method (1) Cell plating: first, tumor cells NCI-N87 were cultured using a corresponding culture medium, trypsinized, centrifuged, resuspended for counting, adjusted to an appropriate concentration, and then plated on a 384-well plate. (2) Co-incubation of the compounds and tumor cells: after the cells adhered to the wall, 100 nL of a diluted bioactive substance (test compound) was added to the cell culture plate using ECHO, the final concentration of DMSO in wells of the cell plate was 0.33%, and the incubation was performed in an incubator at 37°C with […] for 72 h. (3) After the incubation was complete, 30 µL of a CTG reagent (CelltiterGlo kit) was added to each well. The culture was oscillated on a fast oscillator for 2 min, centrifuged at 1,000 rpm for 1 min, and kept away from light at room temperature for 30 min. The chemiluminescence signal value was read using an Envision instrument. (4) Cell viability detection: IC50 was calculated using GraphPad Prism 8 software, and the IC50 of the compounds was obtained using the following nonlinear fitting formula (see Table 3) : 11. Y=Bottom+(Top-Bottom)/(1+10^((LogIC50-X)*HillSlope)) 12. […] Table 3 Antiproliferative activity of test compounds on cells NCI-N87

[1] = Stability of compounds in human plasma; format: in vitro ADME; conditions: 37°C, 5 µmol/L; for Residual percentage (%): 0 h; for remaining at 1 h, 5 µM / remaining at 2 h, 5 µM / remaining at 6 h, 5 µM / remaining at 24 h, 5 µM: read-out: Residual percentage (%)
Description: • (1) 199 µL of human plasma was added to the culture plate of each cell. The culture plate was preheated to 37°C, and kept at this temperature for 15 min. • (2) After preincubation, 1 µL of 1 mmol/L each test compound and 1 µL of 1 mmol/L control compound were added to 199 µL of plasma, so that a final concentration of each test compound was 5 µmol/L and that of the control compound was 5 µmol/L. The final concentration of the organic solvent was 0.5%. The experiment would be duplicated twice. • (3) Reaction samples were incubated at 37°C. • (4) The reaction was stopped by adding 600 µL of cold methanol containing the internal standard at 0, 1, 2, 6, and 24 h. Each sample was vortex mixed for 10 min, and then centrifuged at 3,220 g for 30 min to precipitate the protein. […] Based on the signal response and peak shapes of liquid chromatography-mass spectrometry (LC-MS), the supernatant would be diluted with ultrapure water.
All calculations were performed using Microsoft Excel. The peak area ratio was determined from the chromatogram of extracted ions. The percentage of compounds remaining at each time point was calculated as per the following formula: Residual percentagetmin (%) = peak area ratiotmin /peak areat0 × 100 [formula]

[2] = Stability of compounds in human plasma; format: in vitro ADME; conditions: 37°C, 5 µmol/L, read-out: Residual percentage (%)

SMILES | IC50 (SK-BR-3; Homo sapiens, SK-BR-3, 72 h) [nM] | IC50 (MDA-MB-468; Homo sapiens, MDA-MB-468, 72 h) [nM] | IC50 (NCI-N87; Homo sapiens, NCI-N87, 72 h) [nM] | Residual percentage (%) [1] [%] | remaining at 1 h, 5 µM [1] [%] | remaining at 2 h, 5 µM [1] [%] | remaining at 6 h, 5 µM [1] [%] | remaining at 24 h, 5 µM [1] [%] | remaining at 4 h, 5 µM [2] [%] | IC50 (SK-BR-3) [nM] | IC50 (MDA-MB-468) [nM] | IC50 (NCI-N87) [nM]
CC[C@@]1(O)C(=O)OCc2c1cc1n(c2=O)Cc2c-1nc1cc(F)c(C)c3c1c2C(NC(=O)C[C@@H](C)O)CCC3 (single isomer, unassigned) [6-2] | 7.3 | 6.5 | 6.8 | 100.00 | 96.6 | 86.2 | 89 | 87 | 93.7 |  |  | 
CC[C@@]1(O)C(=O)OCc2c1cc1n(c2=O)Cc2c-1nc1cc(F)c(C3CC3)c3c1c2C(NC(=O)C[C@@H](C)O)CC3 (single isomer, unassigned) [17-2] |  |  |  | 100.00 | 90.1 | 89.3 | 97.1 | 102 | 93.8 | 6.6 | 8.1 | 5.3
CC[C@@]1(O)C(=O)OCc2c1cc1n(c2=O)Cc2c-1nc1cc(F)c(C)c3c1c2[C@@H](NC(=O)[C@@H](O)C1CC1)CCC3 [11-2, (S)-2-cyclopropyl-N-((1S,10S)-10-ethyl-6-fluoro-10-hydroxy-5-methyl-11,14-dioxo-1,2,3,4,10,11,14,16-octahydro-13H-cyclohepta[de]pyrano[3',4':6,7]indolizino[1,2-b]quinolin-1-yl)-2-hydroxyacetamide] |  |  |  | 100.00 | 96.8 | 92.1 | 94.5 | 88.8 | 93.4 |  |  | 
